This is an account of results in PMC4475797, “New Activity of a Protein from Canavalia ensiformis” (Scientia Pharmaceutica, 2014).

Like-named read-outs stand apart in the source and are kept apart here.

One data set has as its target T1, Concanavalin A (Con A) (Canavalia ensiformis, UniProt P02866).
T1 construct: purchased Sigma
Put plainly: biochemical. The format is binding. The method, then:
Fluorescence spectra were recorded with a Shimadzu spectrofluorometer (Japan). The emission spectra of the tryptophan residues were recorded in a 1-cm quartz cell (Hellma Analytics, Germany). To avoid the measurement of the Tyr emission, the protein sample was excited at λ=295 nm with a slit width of 1.0 nm. Total fluorescence was calculated after the normalization of the fluorescence spectra and correction for dilution. In order to normalize the inner filter and self-absorption effects, the excitation was always carried out less than 0.05 OD. The spectra were recorded in a wavelength range of 300–500 nm. All studies were done at 25°C with the temperature of the samples measured in the cuvette with an accuracy of ± 0.2°C.
The protein-ligand interactions were investigated by monitoring changes in the intrinsic protein fluorescence emission (θexc=295 nm). We applied ideal fluorescence titration and incubation methods for their intrinsic sensitivity and simplicity. For this purpose, Con A (1.8 µM) was incubated at 4°C overnight with increasing concentrations of MnTMPyP, ZnTPPS, and FeTMPyP. […] Applied porphyrin concentrations were consistent with minimizing artifacts due to aggregation phenomena. Con A-adenine interactions were studied by overnight incubation (at 4°C). The obtained experimental data were processed by non-linear and linear regression analysis, computed by a GraphPad Prism program and presented in figures comprising three independent sets of experiments.

For data set [1], the system named is G361 (a human melanoma cell line). Also noted: method as in PMID 18645224. As to conditions: G361 cells; cited from earlier work.
The subject of data set [2] is cancer cell lines (Du-145, HD-LAPC-4, Hep-G2, HI-LAPC-4, LnCAP, PANC-1, and PC-3). More on the design: method as in PMID 20735206. As to conditions: combined with an ascorbic acid; cited from earlier work.
The mark [3] stands for this setting: pH 6.8, read-out: Dissociation constants (KD) for the interaction.

Take `O=S(=O)([O-])c1ccc(-c2c3nc(c(-c4ccc(S(=O)(=O)[O-])cc4)c4ccc([nH]4)c(-c4ccc(S(=O)(=O)[O-])cc4)c4nc(c(-c5ccc(S(=O)(=O)[O-])cc5)c5ccc2[nH]5)C=C4)C=C3)cc1.[Zn+2].[Zn+2]` [ZnTPPS, 5,10,15,20-Tetrakis (4-sulfonatophenyl)-porphyrin-zinc(II)]: at Concanavalin A (Con A), the “effect on Trp fluorescence emission of Con A” value (from here on “effect … of Con A”) was “increase in the Trp fluorescence” and the “red shift of the emission maximum position” value is recorded as 10 nm. Further, the cell death entry in data set [1] is on record as “induces cell death”.

`C[n+]1ccc(-c2c3nc(c(-c4cc[n+](C)cc4)c4ccc([n-]4)c(-c4cc[n+](C)cc4)c4nc(c(-c5cc[n+](C)cc5)c5ccc2[n-]5)C=C4)C=C3)cc1.[Cl-].[Cl-].[Cl-].[Cl-].[Cl-].[Mn+3]` [MnTMPyP, 5,10,15,20-Tetrakis (N-methyl-4-pyridyl)-porphyrin-Mn(III)pentachloride]: the cytotoxic effect result in data set [2] was “potent synergistic cytotoxic effect”. For the same molecule, at Concanavalin A (Con A), the “effect … of Con A” value was “fluorescence quenching”. Also, the Kd on Concanavalin A (Con A) (setting [3]) was found to be 1890 ± 540 nM.

For `Nc1ncnc2[nH]cnc12` [adenine], at Concanavalin A (Con A), the affinity, expressed as Kd, was 380 ± 80 nM and the “effect … of Con A” value is “fluorescence quenching”.

Take “5,10,15,20-Tetrakis(4-sulfonatophenyl)-porphyrin-Au(III)chloride [AuTPPS]”: the “effect … of Con A” value at Concanavalin A (Con A) is listed as “fluorescence quenching”.

With `C[n+]1ccc(-c2c3nc(c(-c4cc[n+](C)cc4)c4ccc([n-]4)c(-c4cc[n+](C)cc4)c4nc(c(-c5cc[n+](C)cc5)c5ccc2[n-]5)C=C4)C=C3)cc1.[Fe+3]` [FeTMPyP, 5,10,15,20-Tetrakis (N-methyl 4-pyridyl)-porphyrin Fe(III)], on Concanavalin A (Con A), the “Hill slope (h)” value was determined as 1.89±0.46 and the “blue shift of the emission maximum” value amounted to 5 nm. Further, the Kd at Concanavalin A (Con A) (setting [3]) turned out to be 950 ± 130 nM.

The term Kd denotes a measure of binding affinity in units of concentration.
